Earlier results in patent publication US6579895B2, “Use of a celecoxib composition for fast pain relief” (Pharmacia Corporation, priority 2000, dated 2003).

What was measured:
post-surgical pain = conditions: ibuprofen 400 mg; e.g. post-surgical pain
plasma albumin = plasma albumin (Homo sapiens, UniProt P02768); conditions: following oral administration
Chain of plasma albumin (P02768 25-609): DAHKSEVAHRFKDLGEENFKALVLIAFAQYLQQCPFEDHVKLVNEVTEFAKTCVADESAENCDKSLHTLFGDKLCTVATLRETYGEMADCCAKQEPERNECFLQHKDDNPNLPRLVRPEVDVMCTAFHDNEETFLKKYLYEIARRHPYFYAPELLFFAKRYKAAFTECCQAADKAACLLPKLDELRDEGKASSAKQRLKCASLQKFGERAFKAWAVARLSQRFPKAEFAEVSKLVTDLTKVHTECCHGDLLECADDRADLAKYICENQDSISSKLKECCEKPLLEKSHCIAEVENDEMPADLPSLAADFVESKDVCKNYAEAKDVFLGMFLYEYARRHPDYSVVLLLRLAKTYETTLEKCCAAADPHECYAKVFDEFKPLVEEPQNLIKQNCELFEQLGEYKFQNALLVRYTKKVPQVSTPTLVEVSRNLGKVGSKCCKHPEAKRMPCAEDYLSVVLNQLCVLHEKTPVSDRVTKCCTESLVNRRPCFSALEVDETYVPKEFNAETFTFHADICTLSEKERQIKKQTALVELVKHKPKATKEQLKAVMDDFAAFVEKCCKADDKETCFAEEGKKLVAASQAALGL

binding to plasma albumin (plasma albumin) | Structure (SMILES) | time after administration to an adequate level of suppression of pain (post-surgical pain)
 | CC(C)Cc1ccc(C(C)C(=O)O)cc1 (centres unmarked) [Ibuprofen, ibuprofen] | about 1 hour
extensive binding | Cc1ccc(-c2cc(C(F)(F)F)nn2-c2ccc(S(N)(=O)=O)cc2)cc1 [celecoxib, 4-[5-(4-methylphenyl)-3-(trifluoromethyl)-1H-pyrazol-1-y1]benzenesulfonamide] | 
